Where a name gives a salt, the structure may show the parent alone.
Molecular target: human D3 receptor (Homo sapiens, UniProt P35462)
Assay: Cytosensor Microphysiometer functional activity, antagonist mode against quinpirole (hD3-CHO cells)
Type: cell-based
Conditions: against 30 nM quinpirole, acidification rate, read-out: pKb values at the human D3 receptor (tested as antagonists) (converted)

Chain of human D3 receptor (P35462 whole entry): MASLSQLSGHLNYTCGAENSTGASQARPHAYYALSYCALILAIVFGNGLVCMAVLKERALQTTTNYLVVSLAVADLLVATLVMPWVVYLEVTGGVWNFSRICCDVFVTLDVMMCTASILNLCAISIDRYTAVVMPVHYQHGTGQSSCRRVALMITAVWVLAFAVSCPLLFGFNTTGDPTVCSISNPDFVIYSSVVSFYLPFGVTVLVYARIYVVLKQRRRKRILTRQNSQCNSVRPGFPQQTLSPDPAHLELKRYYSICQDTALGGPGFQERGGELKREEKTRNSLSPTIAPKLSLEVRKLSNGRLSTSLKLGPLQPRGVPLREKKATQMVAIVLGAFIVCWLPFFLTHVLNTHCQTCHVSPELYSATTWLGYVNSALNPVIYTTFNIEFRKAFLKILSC

Compound | Kb [nM]
CCCN(CCCCNC(=O)c1ccc(-c2ccccc2)cc1)C1CCc2cc(OC(F)(F)F)ccc2C1 (racemic) [Example 2x, N-(4-(4-Phenylbenzoylamino)butyl)-2-(R,S)-propylamino-6-trifluoromethoxy-1,2,3,4-tetrahydronaphthalene, hydrochloride] | 0.0316 to 10
CCCN(CCCCNC(=O)c1ccc(-c2ccccc2)cc1)C1Cc2ccccc2C1 [Example 2p, N-(4-(4-Phenylbenzoylamino)butyl)-2-propylaminoindane, hydrochloride] | 0.0316 to 10
CCCN(CCCCNC(=O)c1ccc(-c2ccccc2)cc1)C1CCc2c(cccc2OS(=O)(=O)C(F)(F)F)C1 (racemic) [Example 15, N-(4-(4-Phenylbenzoylamino)butyl)-2-(R,S)-propylamino-5-trifluoromethanesulfonyloxy-1,2,3,4-tetrahydronaphthalene, hydrochloride] | 0.0316 to 10
CCCN(CCCCNC(=O)c1ccc(-c2ccccc2)cc1)C1CCc2ccc(CC(=O)OCC)cc2C1 (racemic) [Example 3dd, N-(4-(4-Phenylbenzoylamino)butyl)-7-(R,S)-propylamino-5,6,7,8-tetrahydronaphthalene-2-acetic acid, ethyl ester, hydrochloride] | 0.0316 to 10
CCCN(CCCCNC(=O)c1ccc(-c2ccccc2)cc1)C1CCc2c(Cl)cccc2C1 (racemic) [Example 2k, 5-Chloro-N-(4-(4-phenylbenzoylamino)butyl)-2-(R,S)-propylamino-1,2,3,4-tetrahydronaphthalene, hydrochloride] | 0.0316 to 10
CCCN(CCCCNC(=O)c1ccc(-c2ccccc2)cc1)C1CCc2c(cccc2OS(C)(=O)=O)C1 (racemic) [Example 17, 5-Methanesulfonyloxy-N-(4-(4-phenylbenzoylamino)butyl)-2-(R,S)-propylamino-1,2,3,4-tetrahydronaphthalene, hydrochloride] | 0.0316 to 10
CCCN(CCCCNC(=O)c1ccc(-c2ccccc2)cc1)C1CCc2c(CC(=O)OCC)cccc2C1 (racemic) [Example 3bb, N-(4-(4-Phenylbenzoylamino)butyl)-6-(R,S)-propylamino-5,6,7,8-tetrahydronaphthalene-1-acetic acid, ethyl ester, hydrochloride] | 0.0316 to 10
CCCN(CCCCNC(=O)c1ccc(-c2ccccc2)cc1)C1CCc2ccc(Cl)cc2C1 (racemic) [Example 2m, 7-Chloro-N-(4-(4-phenylbenzoylamino)butyl)-2-(R,S)-propylamino-1,2,3,4-tetrahydronaphthalene, hydrochloride] | 0.0316 to 10
CCCN(CCCCNC(=O)c1ccc(-c2ccccc2)cc1)C1CCc2ccccc2C1 (racemic) [Example 10f, N-(4-(4-phenylbenzoylamino)butyl)-2-(R,S)-propylamino-1,2,3,4-tetrahydronaphthalene, hydrochloride] | 0.0316 to 10
CCCN(CCCCNC(=O)c1ccc(-c2ccccc2)cc1)C1CCc2cc(CC(=O)OCC)ccc2C1 (racemic) [Example 3cc, N-(4-(4-Phenylbenzoylamino)butyl)-6-(R,S)-propylamino-5,6,7,8-tetrahydronaphthalene-2-acetic acid, ethyl ester, hydrochloride] | 0.0316 to 10

Source: patent US6008219A, “Bicyclic amine derivatives and their use as anti-psychotic agents” (SmithKline Beech p.l.c., priority 1995, dated 1999)
